This note sets out measurements from patent US11912686B2 (Gilead Sciences, Inc., priority 2020, dated 2024).

Sequence of human LPAR1 (Q92633 whole entry): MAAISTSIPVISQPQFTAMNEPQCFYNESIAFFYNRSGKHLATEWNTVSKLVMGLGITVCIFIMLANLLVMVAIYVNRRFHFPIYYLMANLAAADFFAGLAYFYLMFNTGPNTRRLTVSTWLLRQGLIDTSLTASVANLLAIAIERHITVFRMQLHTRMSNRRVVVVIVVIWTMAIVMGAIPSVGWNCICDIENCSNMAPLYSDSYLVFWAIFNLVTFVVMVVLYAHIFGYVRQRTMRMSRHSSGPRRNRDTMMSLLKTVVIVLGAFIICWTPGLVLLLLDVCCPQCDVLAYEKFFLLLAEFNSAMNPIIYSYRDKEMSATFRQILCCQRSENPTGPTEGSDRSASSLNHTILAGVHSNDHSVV

This test addresses human LPAR1 (Homo sapiens (Human), UniProt Q92633). The test can be described thus: LPAR1 intracellular calcium mobilization assay (antagonist mode, FLIPR). The format is cell-based. Conditions: CHO-K1 EDG2 cells expressing human LPAR1, LPA 18:2 at EC80 (100 nM), test compound 0.5 nM to 10 μM. Background: Calcium assays in cells follow changes in intracellular calcium, usually with a dye or a luminescent sensor.
One may read the EC50 as the concentration that produces a half-maximal response. Take `C[C@@H](OC(=O)Nc1c(-c2ccc(NC(=O)c3ccc(C(F)(F)F)nc3F)cn2)nnn1C)c1cc(F)cnc1F` [Compound 254, (R)-1-(2,5-difluoropyridin-3-yl)ethyl (4-(5-(2-fluoro-6-(trifluoromethyl)nicotinamido)pyridin-2-yl)-1-methyl-1H-1,2,3-triazol-5-yl)carbamate]: the EC50 worked out at 18.1 nM.
For `C[C@@H](OC(=O)Nc1c(-c2ccc(NC(=O)c3cnc(F)cc3F)cn2)nnn1C)c1cc(F)cnc1F` [Compound 255, (R)-1-(2,5-difluoropyridin-3-yl)ethyl (4-(5-(4,6-difluoronicotinamido)pyridin-2-yl)-1-methyl-1H-1,2,3-triazol-5-yl)carbamate] the value was 346 nM.
Take `Cc1ncc(C(=O)Nc2ccc(-c3nnn(C)c3NC(=O)O[C@H](C)c3cc(F)cnc3F)nc2)o1` [Compound 256, (R)-1-(2,5-difluoropyridin-3-yl)ethyl (1-methyl-4-(5-(2-methyloxazole-5-carboxamido)pyridin-2-yl)-1H-1,2,3-triazol-5-yl)carbamate]: the EC50 is 209 nM.
For the compound `Cc1nnc(C(=O)Nc2ccc(-c3nnn(C)c3NC(=O)O[C@H](C)c3cc(F)cnc3F)nc2)o1` [Compound 257, (R)-1-(2,5-difluoropyridin-3-yl)ethyl (1-methyl-4-(5-(5-methyl-1,3,4-oxadiazole-2-carboxamido)pyridin-2-yl)-1H-1,2,3-triazol-5-yl)carbamate], the EC50 amounted to 443 nM.
The same measure for `C[C@@H](OC(=O)Nc1c(-c2ccc(NC(=O)c3cc(C#N)no3)cn2)nnn1C)c1cc(F)cnc1F` [Compound 258, (R)-1-(2,5-difluoropyridin-3-yl)ethyl (4-(5-(3-cyanoisoxazole-5-carboxamido)pyridin-2-yl)-1-methyl-1H-1,2,3-triazol-5-yl)carbamate]: 19.3 nM.
For `C[C@@H](OC(=O)Nc1c(-c2ccc(NC(=O)c3cnnc(C(F)(F)F)c3)cn2)nnn1C)c1cc(F)cnc1F` [Compound 259, (R)-1-(2,5-difluoropyridin-3-yl)ethyl (1-methyl-4-(5-(6-(trifluoromethyl)pyridazine-4-carboxamido)pyridin-2-yl)-1H-1,2,3-triazol-5-yl)carbamate], the EC50 worked out at 101 nM.
On to `Cc1cc(C(=O)Nc2ccc(-c3nnn(C)c3NC(=O)O[C@H](C)c3cc(F)cnc3F)nc2)on1` [Compound 260, (R)-1-(2,5-difluoropyridin-3-yl)ethyl (1-methyl-4-(5-(3-methylisoxazole-5-carboxamido)pyridin-2-yl)-1H-1,2,3-triazol-5-yl)carbamate], for which the EC50 was determined as 161 nM.
The same measure for `C[C@@H](OC(=O)Nc1c(-c2ccc(NC(=O)c3ccnc(C(F)(F)F)c3F)cn2)nnn1C)c1cc(F)cnc1F` [Compound 261, (R)-1-(2,5-difluoropyridin-3-yl)ethyl (4-(5-(3-fluoro-2-(trifluoromethyl)isonicotinamido)pyridin-2-yl)-1-methyl-1H-1,2,3-triazol-5-yl)carbamate]: 11.9 nM; for `C[C@@H](OC(=O)Nc1c(-c2ccc(NC(=O)c3ccc(Cl)nc3F)cn2)nnn1C)c1cc(F)cnc1F` [Compound 262, (R)-1-(2,5-difluoropyridin-3-yl)ethyl (4-(5-(6-chloro-2-fluoronicotinamido)pyridin-2-yl)-1-methyl-1H-1,2,3-triazol-5-yl)carbamate]: 23.7 nM; for `C[C@@H](OC(=O)Nc1c(-c2ccc(NC(=O)c3cncc(F)c3Cl)cn2)nnn1C)c1cc(F)cnc1F` [Compound 263, (R)-1-(2,5-difluoropyridin-3-yl)ethyl (4-(5-(4-chloro-5-fluoronicotinamido)pyridin-2-yl)-1-methyl-1H-1,2,3-triazol-5-yl)carbamate]: 691 nM.
For `C[C@@H](OC(=O)Nc1c(-c2ccc(NC(=O)c3cc(F)nc(F)c3F)cn2)nnn1C)c1cc(F)cnc1F` [Compound 264, (R)-1-(2,5-difluoropyridin-3-yl)ethyl (1-methyl-4-(5-(2,3,6-trifluoroisonicotinamido)pyridin-2-yl)-1H-1,2,3-triazol-5-yl)carbamate] the value was 203 nM; for `C[C@@H](OC(=O)Nc1c(-c2ccc(NC(=O)[C@@H]3C[C@H]3c3ccccn3)cn2)nnn1C)c1cc(F)cnc1F` [Compound 265, (R)-1-(2,5-difluoropyridin-3-yl)ethyl (1-methyl-4-(5-((1R,2R)-2-(pyridin-2-yl)cyclopropane-1-carboxamido)pyridin-2-yl)-1H-1,2,3-triazol-5-yl)carbamate], 19.5 nM.
For the compound `C[C@@H](OC(=O)Nc1c(-c2ccc(NC(=O)[C@H]3C[C@@H]3c3ccccn3)cn2)nnn1C)c1cc(F)cnc1F` [Compound 266, (R)-1-(2,5-difluoropyridin-3-yl)ethyl (1-methyl-4-(5-((1S,2S)-2-(pyridin-2-yl)cyclopropane-1-carboxamido)pyridin-2-yl)-1H-1,2,3-triazol-5-yl)carbamate], the EC50 was 749 nM.
With `C[C@@H](OC(=O)Nc1c(-c2ccc(NC(=O)[C@@H]3C[C@H]3C3CC3)cn2)nnn1C)c1cc(F)cnc1F` [Compound 267, (R)-1-(2,5-difluoropyridin-3-yl)ethyl (4-(5-((1S,2R)[1,1′-bi(cyclopropane)]-2-carboxamido)pyridin-2-yl)-1-methyl-1H-1,2,3-triazol-5-yl)carbamate], the EC50 worked out at 588 nM.
In the case of `C[C@@H](OC(=O)Nc1c(-c2ccc(NC(=O)[C@H]3C[C@@H]3C3CC3)cn2)nnn1C)c1cc(F)cnc1F` [Compound 268, (R)-1-(2,5-difluoropyridin-3-yl)ethyl (4-(5-((1R,2S)-[1,1′-bi(cyclopropane)]-2-carboxamido)pyridin-2-yl)-1-methyl-1H-1,2,3-triazol-5-yl)carbamate], the EC50 came to 7.3 nM.
Take `C[C@@H](OC(=O)Nc1c(-c2ccc(NC(=O)[C@]3(C#N)C[C@H]3F)cn2)nnn1C)c1cc(F)cnc1F` [Compound 269, (R)-1-(2,5-difluoropyridin-3-yl)ethyl (4-(5-((1R,2R)-1-cyano-2-fluorocyclopropane-1-carboxamido)pyridin-2-yl)-1-methyl-1H-1,2,3-triazol-5-yl)carbamate]: the EC50 was 127 nM.
Consider `C[C@@H](OC(=O)Nc1c(-c2ccc(NC(=O)[C@@]3(C#N)C[C@@H]3F)cn2)nnn1C)c1cc(F)cnc1F` [Compound 270, (R)-1-(2,5-difluoropyridin-3-yl)ethyl (4-(5-((1S,2S)-1-cyano-2-fluorocyclopropane-1-carboxamido)pyridin-2-yl)-1-methyl-1H-1,2,3-triazol-5-yl)carbamate], for which the EC50 is 168 nM.
For `C[C@@H](OC(=O)Nc1c(-c2ccc(NC(=O)c3ccc(C4(C#N)CC4)nc3)cn2)nnn1C)c1cc(F)cnc1F` [Compound 271, (R)-1-(2,5-difluoropyridin-3-yl)ethyl (4-(5-(6-(1-cyanocyclopropyl)nicotinamido)pyridin-2-yl)-1-methyl-1H-1,2,3-triazol-5-yl)carbamate] the value was 229 nM; for `C[C@@H](OC(=O)Nc1c(-c2ccc(NC(=O)c3ccc(C(C)(F)F)nc3)cn2)nnn1C)c1cc(F)cnc1F` [Compound 272, (R)-1-(2,5-difluoropyridin-3-yl)ethyl (4-(5-(6-(1,1-difluoroethyl)nicotinamido)pyridin-2-yl)-1-methyl-1H-1,2,3-triazol-5-yl)carbamate], 162 nM.
The same measure for `C[C@@H](OC(=O)Nc1c(-c2ccc(NC(=O)c3ccnc(S(C)(=O)=O)c3)cn2)nnn1C)c1cc(F)cnc1F` [Compound 273, (R)-1-(2,5-difluoropyridin-3-yl)ethyl (1-methyl-4-(5-(2-(methylsulfonyl)isonicotinamido)pyridin-2-yl)-1H-1,2,3-triazol-5-yl)carbamate]: 248 nM; for `C[C@@H](OC(=O)Nc1c(-c2ccc(NC(=O)c3ccc4ncn(C)c4c3)cn2)nnn1C)c1cc(F)cnc1F` [Compound 274, (R)-1-(2,5-difluoropyridin-3-yl)ethyl (1-methyl-4-(5-(1-methyl-1H-benzo[d]imidazole-6-carboxamido)pyridin-2-yl)-1H-1,2,3-triazol-5-yl)carbamate]: 403 nM; for `C[C@@H](OC(=O)Nc1c(-c2ccc(NC(=O)c3cc(C(F)(F)F)cnc3F)cn2)nnn1C)c1cc(F)cnc1F` [Compound 275, (R)-1-(2,5-difluoropyridin-3-yl)ethyl (4-(5-(2-fluoro-5-(trifluoromethyl)nicotinamido)pyridin-2-yl)-1-methyl-1H-1,2,3-triazol-5-yl)carbamate]: 241 nM.
The same measure for `Cc1noc(C(=O)Nc2ccc(-c3nnn(C)c3NC(=O)O[C@H](C)c3cc(F)cnc3F)nc2)c1C` [Compound 276, (R)-1-(2,5-difluoropyridin-3-yl)ethyl (4-(5-(3,4-dimethylisoxazole-5-carboxamido)pyridin-2-yl)-1-methyl-1H-1,2,3-triazol-5-yl)carbamate]: 140 nM.
In the case of `Cc1nc2cc(C(=O)Nc3ccc(-c4nnn(C)c4NC(=O)O[C@H](C)c4cc(F)cnc4F)nc3)cnc2[nH]1` [Compound 277, (R)-1-(2,5-difluoropyridin-3-yl)ethyl (1-methyl-4-(5-(2-methyl-3H-imidazo[4,5-b]pyridine-6-carboxamido)pyridin-2-yl)-1H-1,2,3-triazol-5-yl)carbamate], the EC50 turned out to be 955 nM.
With `C[C@@H](OC(=O)Nc1c(-c2ccc(NC(=O)c3cnc4cnn(C)c4c3)cn2)nnn1C)c1cc(F)cnc1F` [Compound 278, (R)-1-(2,5-difluoropyridin-3-yl)ethyl (1-methyl-4-(5-(1-methyl-1H-pyrazolo[4,3-b]pyridine-6-carboxamido)pyridin-2-yl)-1H-1,2,3-triazol-5-yl)carbamate], the EC50 is 810 nM.
As to `Cc1noc2cc(C(=O)Nc3ccc(-c4nnn(C)c4NC(=O)O[C@H](C)c4cc(F)cnc4F)nc3)ccc12` [Compound 279, (R)-1-(2,5-difluoropyridin-3-yl)ethyl (1-methyl-4-(5-(3-methylbenzo[d]isoxazole-6-carboxamido)pyridin-2-yl)-1H-1,2,3-triazol-5-yl)carbamate], the EC50 was determined as 97.4 nM.
